Source: ChEMBL document CHEMBL1125472, “5-lipoxygenase: properties, pharmacology, and the quinolinyl(bridged)aryl class of inhibitors” (J Med Chem, 1992)

Columns and labels:
Cyclooxygenase [1] = target: Cyclooxygenase (Homo sapiens, UniProt P35354+P23219); assay: The compound was tested for inhibitory activity against Prostaglandin G/H synthase in human polymorphonuclear leukocytes[PMNS]; type: cell-based
[2] = target: T1, Polyunsaturated fatty acid 5-lipoxygenase (Rattus norvegicus, UniProt P12527); assay: The compound was tested for inhibitory activity against 5-lipoxygenase using rat polymorphonuclear leukocytes[PMNS]
T1 sequence (P12527 whole entry): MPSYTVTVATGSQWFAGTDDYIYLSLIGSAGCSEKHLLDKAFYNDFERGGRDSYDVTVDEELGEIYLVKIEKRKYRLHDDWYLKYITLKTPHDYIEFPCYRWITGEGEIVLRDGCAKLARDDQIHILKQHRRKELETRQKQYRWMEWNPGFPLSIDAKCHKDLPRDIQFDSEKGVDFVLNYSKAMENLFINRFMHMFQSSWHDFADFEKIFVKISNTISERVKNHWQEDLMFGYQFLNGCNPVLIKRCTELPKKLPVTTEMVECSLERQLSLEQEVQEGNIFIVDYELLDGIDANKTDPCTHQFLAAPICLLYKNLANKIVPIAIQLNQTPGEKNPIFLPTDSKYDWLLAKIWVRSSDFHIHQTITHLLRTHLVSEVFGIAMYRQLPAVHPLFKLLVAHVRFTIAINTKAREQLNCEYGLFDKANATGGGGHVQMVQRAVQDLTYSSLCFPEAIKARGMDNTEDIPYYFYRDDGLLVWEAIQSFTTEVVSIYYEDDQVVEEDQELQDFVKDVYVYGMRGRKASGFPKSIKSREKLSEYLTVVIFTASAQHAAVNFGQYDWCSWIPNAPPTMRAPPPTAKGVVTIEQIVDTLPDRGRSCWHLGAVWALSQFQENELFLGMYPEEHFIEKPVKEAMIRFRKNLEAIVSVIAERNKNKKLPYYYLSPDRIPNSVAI

Cyclooxygenase [3] = target: T2, Cyclooxygenase (Rattus norvegicus, UniProt P35355+Q63921); assay: The compound was tested for inhibitory activity against Prostaglandin G/H synthase in rat polymorphonuclear leukocytes[PMNS]; type: cell-based
T2 sequence (P35355 whole entry): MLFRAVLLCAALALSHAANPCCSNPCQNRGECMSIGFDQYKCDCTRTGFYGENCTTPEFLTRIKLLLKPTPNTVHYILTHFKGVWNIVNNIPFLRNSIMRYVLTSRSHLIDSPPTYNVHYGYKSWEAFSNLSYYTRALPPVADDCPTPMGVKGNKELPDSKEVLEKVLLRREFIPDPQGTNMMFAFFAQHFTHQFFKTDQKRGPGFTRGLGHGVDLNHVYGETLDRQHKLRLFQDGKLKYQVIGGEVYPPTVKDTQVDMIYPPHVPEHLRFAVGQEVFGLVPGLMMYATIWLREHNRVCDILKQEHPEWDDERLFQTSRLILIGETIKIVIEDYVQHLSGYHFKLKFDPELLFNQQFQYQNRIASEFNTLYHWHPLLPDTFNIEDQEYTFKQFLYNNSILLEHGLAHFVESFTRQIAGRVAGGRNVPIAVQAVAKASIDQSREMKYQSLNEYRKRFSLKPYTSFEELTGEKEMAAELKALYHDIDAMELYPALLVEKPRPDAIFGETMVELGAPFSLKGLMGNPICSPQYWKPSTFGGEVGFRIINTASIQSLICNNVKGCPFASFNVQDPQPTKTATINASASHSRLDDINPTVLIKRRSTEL
T2 sequence (Q63921 whole entry): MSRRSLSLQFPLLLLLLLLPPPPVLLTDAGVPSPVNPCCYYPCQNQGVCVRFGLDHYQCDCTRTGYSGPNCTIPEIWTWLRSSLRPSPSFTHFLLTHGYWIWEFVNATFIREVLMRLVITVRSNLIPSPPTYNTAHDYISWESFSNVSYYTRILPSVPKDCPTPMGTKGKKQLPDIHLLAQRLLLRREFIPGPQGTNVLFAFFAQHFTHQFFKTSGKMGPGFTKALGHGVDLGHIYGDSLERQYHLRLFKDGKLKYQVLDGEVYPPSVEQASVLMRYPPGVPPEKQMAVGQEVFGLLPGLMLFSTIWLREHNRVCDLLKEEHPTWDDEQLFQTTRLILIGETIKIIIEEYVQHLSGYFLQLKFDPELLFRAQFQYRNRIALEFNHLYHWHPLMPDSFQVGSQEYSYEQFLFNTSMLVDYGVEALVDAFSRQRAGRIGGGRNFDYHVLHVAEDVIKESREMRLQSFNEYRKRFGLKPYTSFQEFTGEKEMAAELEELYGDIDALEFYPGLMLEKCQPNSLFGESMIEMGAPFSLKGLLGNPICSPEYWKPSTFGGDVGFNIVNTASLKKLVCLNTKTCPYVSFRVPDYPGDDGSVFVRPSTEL

Cavia porcellus [4] = organism: Cavia porcellus; assay: The compound was tested for inhibition of LTD4-induced bronchoconstriction in guinea pig; type: functional
Cavia porcellus [5] = organism: Cavia porcellus; assay: The compound was tested for inhibitory activity against LTD4-induced contractions of guinea pig ileum; type: functional
[6] = target: T1, Polyunsaturated fatty acid 5-lipoxygenase; assay: The compound was tested for inhibitory activity against 5-lipoxygenase in rat polymorphonuclear leukocytes[PMNS]; type: cell-based
[7] = target: Cyclooxygenase (Rattus norvegicus) (UniProt P35355+Q63921); assay: The compound was tested for inhibition against Prostaglandin G/H synthase in rat polymorphonuclear leukocytes[PMNS] at 10 uM concentration; type: cell-based
[8] = target: T3, Polyunsaturated fatty acid 5-lipoxygenase (Rattus norvegicus) (UniProt P12527); assay: The compound was tested for inhibition against 5-lipoxygenase in rat polymorphonuclear leukocytes[PMNS] at 10 uM concentration; type: cell-based
T3 sequence (whole entry): T1 sequence (P12527 whole entry)

RBL-2H3 [9] = assay: The compound was tested for inhibition LTC4 synthesis; type: functional, Rattus norvegicus
RBL-2H3 [10] = assay: The compound was tested for inhibition of translocation in SAR in RBL-2H3 cells; type: functional, Rattus norvegicus
[11] = target: T3, Polyunsaturated fatty acid 5-lipoxygenase (Rattus norvegicus); assay: The compound was tested for inhibition of isolated 5-Lipoxygenase
[12] = Compound was tested for spasmogenic activity of LTC4 on lung strips; type: functional
[13] = Compound was tested for spasmogenic activity of LTD4 on lung strips; type: functional
Rattus norvegicus = organism: Rattus norvegicus; assay: The compound was tested for inhibition of [3H]LTD4 binding to lung membrane; type: functional
[14] = Compound was tested for spasmogenic activity of LTE4 on lung strips; type: functional
[15] = The effective dose for inhibition of LTD4-induced wheal formation after oral administration; type: functional
[16] = The effective dose for inhibition of anaphylactic death after oral administration; type: functional
[17] = target: T1, Polyunsaturated fatty acid 5-lipoxygenase; assay: The compound was tested for inhibitory activity against 5-Lipoxygenase in rat RBL-1; type: cell-based
Cavia porcellus [18] = organism: Cavia porcellus; assay: The compound was tested for blocking of LTD4-induced contractions of guinea pig trachea; type: functional; conditions: read-out: pA2 (converted)
[19] = target: T4, Cysteinyl leukotriene receptor 1 (Cavia porcellus, UniProt Q2NNR5); assay: The compound was tested for binding affinity against Cysteinyl leukotriene D4 receptor in a soluble guinea pig LTD4 receptor preparation
T4 sequence (Q2NNR5 whole entry): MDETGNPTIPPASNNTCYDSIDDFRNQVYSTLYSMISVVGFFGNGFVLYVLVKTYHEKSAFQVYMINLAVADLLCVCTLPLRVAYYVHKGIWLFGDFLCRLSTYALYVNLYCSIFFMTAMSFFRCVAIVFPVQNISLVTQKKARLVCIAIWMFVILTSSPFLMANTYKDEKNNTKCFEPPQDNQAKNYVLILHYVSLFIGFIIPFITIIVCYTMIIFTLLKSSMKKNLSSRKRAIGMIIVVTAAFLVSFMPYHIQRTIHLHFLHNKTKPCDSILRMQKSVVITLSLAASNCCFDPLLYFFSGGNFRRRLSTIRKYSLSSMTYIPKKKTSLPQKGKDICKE

Cavia porcellus [20] = organism: Cavia porcellus; assay: The effective dose for inhibition of LTD4-induced contractions of guinea pig trachea; type: functional

CC(C)(C)c1cc(-c2cn3ncc(=O)nc3s2)cc(C(C)(C)C)c1O
IC50 (Cyclooxygenase [1]): 25000 nM

Oc1ccccc1OCc1ccc2ccccc2n1
IC50 [2]: 53000 nM
IC50 (Cyclooxygenase [3]): 5820 nM
Inhibition (Cavia porcellus [4]): 28%

O=C(O)c1ccccc1Nc1cccc(OCc2ccc3ccccc3n2)c1 [SR-2640]
IC50 (Cyclooxygenase [3]): 2000 nM
IC50 (Cavia porcellus [5]): 3 nM
IC50 [6]: 10000 nM

CCCc1c(OCC(O)COc2cccc(NC(=O)C(=O)OCC)c2C#N)ccc(C(C)=O)c1O (stereo not given)
IC50 [6]: 32000 nM

CCc1cc(OCc2ccc3ccccc3n2)cc2c3c([nH]c12)C(CC)(CC(=O)O)OCC3 (stereo not given)
Inhibition [7]: 47%
Inhibition [8]: 91%

COc1ccc2cc([C@H](C)C(=O)O)ccc2c1 [NAPROXEN]
Inhibition (RBL-2H3 [9]): >10 µM
Inhibition (RBL-2H3 [10]): >10 µM
Inhibition [11]: > 20 µM

c1ccc(Cc2nn[nH]n2)c(COc2ccc(OCc3ccc4ccccc4n3)cc2)c1 [RG-12525]
Kb [12]: 2.7 nM
Kb [13]: 2.7 nM
Ki (Rattus norvegicus): 3 nM
Kb [14]: 2.7 nM
ED50 [15]: 5 mg/kg
ED50 [16]: 2.2 mg/kg

CC(c1ccoc1)N(O)C(N)=O (stereo not given)
IC50 [17]: 11000 nM

CCCc1c(OCCCCc2nnn[nH]2)ccc(C(C)=O)c1O [TOMELUKAST]
Kb (Cavia porcellus [18]): 209 nM
Ki [19]: 60 nM

CC(C)(C)CC(=O)c1c(CC(C)(C)C(=O)O)n(Cc2ccc(Cl)cc2)c2ccc(OCc3ccc4ccccc4n3)cc12
IC50 (Cyclooxygenase [1]): 2 nM

CONC(=O)Cc1cccc(OCc2ccc3ccccc3n2)c1
ED50 (Cavia porcellus [20]): 7.9 mg/kg

O=C(O)Cc1ccc(-c2ccc(OCc3ccc4ccccc4n3)cc2)c(F)c1
Inhibition [8]: 100%
